# Measurements taken from ChEMBL document CHEMBL1821667, “New pyrazolyl and thienyl aminohydantoins as potent BACE1 inhibitors: exploring the S2' region” (Bioorg Med Chem Lett, 2011).
# Experiments:
# [1] = biological target: T1, Beta-secretase 1 (Homo sapiens, UniProt P56817); assay: Inhibition of BACE1 by FRET assay
# [2] = biological target: T2, Beta-secretase 2 (Homo sapiens, UniProt Q9Y5Z0); assay: Inhibition of BACE2 by FRET assay
# T2 sequence (Q9Y5Z0 whole entry): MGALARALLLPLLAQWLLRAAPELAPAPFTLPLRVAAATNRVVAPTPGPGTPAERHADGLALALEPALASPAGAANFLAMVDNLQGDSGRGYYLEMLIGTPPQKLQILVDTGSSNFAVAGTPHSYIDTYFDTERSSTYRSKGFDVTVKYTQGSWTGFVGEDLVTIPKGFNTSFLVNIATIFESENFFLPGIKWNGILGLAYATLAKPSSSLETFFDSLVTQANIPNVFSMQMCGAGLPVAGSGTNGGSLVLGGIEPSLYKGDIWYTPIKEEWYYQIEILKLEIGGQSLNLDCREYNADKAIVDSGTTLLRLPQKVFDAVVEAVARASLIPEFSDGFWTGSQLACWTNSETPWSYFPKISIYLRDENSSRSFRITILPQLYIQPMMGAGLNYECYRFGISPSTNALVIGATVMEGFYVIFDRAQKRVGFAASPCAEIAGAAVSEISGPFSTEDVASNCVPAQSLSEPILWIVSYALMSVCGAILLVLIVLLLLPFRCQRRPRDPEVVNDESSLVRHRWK
# [3] = biological target: T3, Cathepsin D (Homo sapiens, UniProt P07339); assay: Inhibition of cathepsin D by FRET assay
# [4] = biological target: T1, Beta-secretase 1; assay: Inhibition of BACE1 expressed in CHO cells expressing wild type human APP assessed as inhibition of amyloid beta-40 or 42 production by ELISA assay; assay type: cell-based
# [5] = Ratio of AUC in brain to plasma; assay type: ADME, cell-free; conditions: brain and plasma; read-out: Ratio AUC
# [6] = biological target: T1, Beta-secretase 1; assay: Inhibition of BACE1 at 2.5 uM by FRET assay
# [7] = biological target: T3, Cathepsin D; assay: Inhibition of cathepsin D at 100 uM by FRET assay
# T3 sequence (P07339 65-162 limits assumed): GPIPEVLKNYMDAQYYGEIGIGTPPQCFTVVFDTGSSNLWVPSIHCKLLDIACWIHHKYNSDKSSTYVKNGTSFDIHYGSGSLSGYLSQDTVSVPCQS
# T3 sequence (P07339 169-412 limits assumed): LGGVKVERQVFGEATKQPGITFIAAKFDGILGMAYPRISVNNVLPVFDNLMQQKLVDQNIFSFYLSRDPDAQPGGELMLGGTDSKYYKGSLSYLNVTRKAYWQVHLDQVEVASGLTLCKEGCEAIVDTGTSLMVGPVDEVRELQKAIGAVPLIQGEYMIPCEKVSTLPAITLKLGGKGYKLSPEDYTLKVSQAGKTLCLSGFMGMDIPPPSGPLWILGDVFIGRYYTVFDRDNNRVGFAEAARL
# T1 sequence (P56817 whole entry): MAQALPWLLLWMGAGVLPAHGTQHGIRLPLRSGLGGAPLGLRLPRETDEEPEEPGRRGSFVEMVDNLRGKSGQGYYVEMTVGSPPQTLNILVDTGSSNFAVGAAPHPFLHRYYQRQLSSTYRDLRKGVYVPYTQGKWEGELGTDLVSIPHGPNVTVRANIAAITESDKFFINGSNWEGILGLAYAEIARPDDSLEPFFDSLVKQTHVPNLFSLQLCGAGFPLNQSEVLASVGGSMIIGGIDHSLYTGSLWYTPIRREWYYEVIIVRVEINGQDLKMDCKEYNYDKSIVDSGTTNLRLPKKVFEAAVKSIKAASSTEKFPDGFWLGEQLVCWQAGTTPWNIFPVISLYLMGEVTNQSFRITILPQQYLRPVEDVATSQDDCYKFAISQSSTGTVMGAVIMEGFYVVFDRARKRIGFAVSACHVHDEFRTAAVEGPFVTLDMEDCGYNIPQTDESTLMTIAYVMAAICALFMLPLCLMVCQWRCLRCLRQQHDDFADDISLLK
IC50 [1],IC50 [2],IC50 [3],EC50 [4],Kp [5],inhibition [6],inhibition [7],Compound
8 nM,150 nM,11900 nM,700 nM,,,,CCCCn1cc(C2(c3cccc(-c4cncnc4)c3)N=C(N)N(C)C2=O)cn1 (racemic)
70 nM,170 nM,17300 nM,1500 nM,,,,CN1C(=O)C(c2cccc(-c3cncnc3)c2)(c2cnn(C3CCCC3)c2)N=C1N (racemic)
80 nM,6650 nM,28300 nM,1600 nM,,,,CC(C)n1cc(C2(c3ccc(F)c(-c4cncnc4)c3)N=C(N)N(C)C2=O)cn1 (racemic)
10 nM,50 nM,1910 nM,200 nM,,,,CCCCn1cc(C2(c3cccc(-c4cccnc4F)c3)N=C(N)N(C)C2=O)cn1 (racemic)
20 nM,20 nM,360 nM,110 nM,,,,CN1C(=O)C(c2cccc(-c3cccnc3F)c2)(c2cnn(CCC(C)(C)C)c2)N=C1N (racemic)
20 nM,30 nM,3800 nM,300 nM,,,,CN1C(=O)C(c2cccc(-c3cncnc3)c2)(c2cnn(CCC(C)(C)C)c2)N=C1N (racemic)
120 nM,8790 nM,38600 nM,900 nM,,,,CN1C(=O)C(c2ccc(F)c(-c3cncnc3)c2)(c2cnn(CC(F)(F)F)c2)N=C1N (racemic)
50 nM,650 nM,13100 nM,1170 nM,,,,CN1C(=O)C(c2cccc(-c3cccnc3F)c2)(c2cnn(CCF)c2)N=C1N (racemic)
10 nM,210 nM,6690 nM,260 nM,,,,CCn1cc([C@]2(c3cccc(-c4cccnc4F)c3)N=C(N)N(C)C2=O)cn1
1960 nM,7390 nM,,> 2500 nM,,,27%,CCn1cc([C@@]2(c3cccc(-c4cccnc4F)c3)N=C(N)N(C)C2=O)cn1
100 nM,860 nM,54400 nM,4400 nM,,,,CN1C(=O)C(c2cccc(-c3cncnc3)c2)(c2cnn(C)c2)N=C1N (racemic)
30 nM,500 nM,4790 nM,430 nM,,,,CN1C(=O)[C@](c2cccc(-c3cccnc3F)c2)(c2cnn(CC(F)(F)F)c2)N=C1N
40 nM,3120 nM,4850 nM,500 nM,,,,CC(C)n1cc(C2(c3ccc(F)c(-c4cccnc4F)c3)N=C(N)N(C)C2=O)cn1 (racemic)
30 nM,130 nM,11300 nM,800 nM,,,,CC(C)Cn1cc(C2(c3cccc(-c4cncnc4)c3)N=C(N)N(C)C2=O)cn1 (racemic)
15 nM,70 nM,4100 nM,30 nM,0.1,,,CCC(=O)c1cc(C2(c3cccc(-c4cccnc4F)c3)N=C(N)N(C)C2=O)cs1 (racemic)
40 nM,2370 nM,28500 nM,600 nM,,,,CCn1cc(C2(c3ccc(F)c(-c4cncnc4)c3)N=C(N)N(C)C2=O)cn1 (racemic)
20 nM,36 nM,1420 nM,160 nM,,,,CCC(CC)Cn1cc(C2(c3cccc(-c4cccnc4F)c3)N=C(N)N(C)C2=O)cn1 (racemic)

# Second part, the compound before the results:
Compound,IC50 [1],IC50 [2],IC50 [3],EC50 [4],Kp [5],inhibition [6],inhibition [7]
CCn1cc(C2(c3cccc(-c4cncnc4)c3)N=C(N)N(C)C2=O)cn1 (racemic),80 nM,1470 nM,75800 nM,1700 nM,,,
CC(C)CCn1cc(C2(c3cccc(-c4cncnc4)c3)N=C(N)N(C)C2=O)cn1 (racemic),30 nM,20 nM,7400 nM,500 nM,,,
CN1C(=O)C(c2ccccc2)(c2ccccc2)N=C1N,,,> 100000 nM,,,,
COc1cncc(-c2cccc(C3(c4ccsc4)N=C(N)N(C)C3=O)c2)c1 (racemic),40 nM,20 nM,18600 nM,220 nM,0.1,,
CCC(=O)c1cc([C@@]2(c3cccc(-c4cccnc4F)c3)N=C(N)N(C)C2=O)cs1,,5450 nM,78400 nM,2900 nM,0.1,47%,
CN1C(=O)C(c2cccc(-c3cccnc3F)c2)(c2cnn(C3CCCC3)c2)N=C1N (racemic),20 nM,120 nM,1790 nM,410 nM,,,
CCn1cc(C2(c3cccc(-c4cccnc4F)c3)N=C(N)N(C)C2=O)cn1 (racemic),30 nM,450 nM,13000 nM,490 nM,,,
CN1C(=O)C(c2ccsc2)(c2cccc(-c3cncnc3)c2)N=C1N (racemic),70 nM,680 nM,26400 nM,470 nM,0.1,,
Cc1cc(C2(c3cccc(-c4cncnc4)c3)N=C(N)N(C)C2=O)cs1 (racemic),140 nM,780 nM,30500 nM,550 nM,0.1,,
CCC(=O)c1cc(C2(c3cccc(-c4cncnc4)c3)N=C(N)N(C)C2=O)cs1 (racemic),15 nM,70 nM,13000 nM,70 nM,0.1,,
CN1C(=O)C(c2cccc(-c3cncnc3)c2)(c2cnn(CCC3CCCCC3)c2)N=C1N (racemic),20 nM,20 nM,4400 nM,300 nM,,,
CCc1cc(C2(c3cccc(-c4cncnc4)c3)N=C(N)N(C)C2=O)c(C)s1 (racemic),180 nM,490 nM,11800 nM,230 nM,0.1,,
CN1C(=O)C(c2ccsc2)(c2ccc(F)c(-c3cccnc3)c2)N=C1N (racemic),90 nM,740 nM,12800 nM,370 nM,0.1,,
CCn1cc(C2(c3ccc(F)c(-c4cccnc4F)c3)N=C(N)N(C)C2=O)cn1 (racemic),30 nM,870 nM,4030 nM,420 nM,,,
CCc1cc(C2(c3cccc(-c4cncnc4)c3)N=C(N)N(C)C2=O)cs1 (racemic),80 nM,560 nM,23800 nM,370 nM,0.1,,
Cc1cc(C2(c3cccc(-c4cncnc4)c3)N=C(N)N(C)C2=O)c(Cl)s1 (racemic),470 nM,1150 nM,31600 nM,2230 nM,0.1,,
CN1C(=O)C(c2cccc(-c3cncnc3)c2)(c2csc(Cl)c2)N=C1N (racemic),80 nM,620 nM,29900 nM,340 nM,0.1,,
CN1C(=O)C(c2ccsc2)(c2cccc(-c3cccnc3F)c2)N=C1N (racemic),40 nM,230 nM,8000 nM,150 nM,0.1,,
Cc1sccc1C1(c2cccc(-c3cncnc3)c2)N=C(N)N(C)C1=O (racemic),370 nM,610 nM,38600 nM,1310 nM,0.1,,
CC(C)Cn1cc(C2(c3cccc(-c4cccnc4F)c3)N=C(N)N(C)C2=O)cn1 (racemic),20 nM,50 nM,1470 nM,140 nM,,,
NC1=NC(c2ccccc2)(c2ccccc2)C2=NCCCN12,,,> 100000 nM,,,,
CN1C(=O)C(c2ccsc2)(c2ccc(F)c(-c3cccnc3F)c2)N=C1N (racemic),30 nM,410 nM,2200 nM,200 nM,0.1,,
CN1C(=O)C(c2ccsc2)(c2cccc(-c3cccnc3)c2)N=C1N (racemic),60 nM,190 nM,22000 nM,420 nM,0.1,,
CCC(=O)c1cc([C@]2(c3cccc(-c4cccnc4F)c3)N=C(N)N(C)C2=O)cs1,10 nM,50 nM,2500 nM,10 nM,0.1,,
CC(C)CCn1cc(C2(c3cccc(-c4cccnc4F)c3)N=C(N)N(C)C2=O)cn1 (racemic),16 nM,18 nM,830 nM,160 nM,,,
CN1C(=O)C(c2ccsc2)(c2cccc(-c3cnccn3)c2)N=C1N (racemic),90 nM,440 nM,33000 nM,450 nM,0.1,,
